Test results as given in article PMC7247319, “The mitochondria-targeted peptide SS-31 binds lipid bilayers and modulates surface electrostatics as a key component of its mechanism of action” (The Journal of Biological Chemistry, 2020).
Where a SMILES comes first, the peptide text is derived from it. [ ]: non-standard residue; d: D form. Dmt = Cc1cc(O)cc(C)c1C[C@H](N)C(=O)O

Tested on: LUVs with POPC only
Assay: SS-31 binding isotherms by endogenous 2′,6′-Dmt fluorescence
Details: even at the highest lipid concentrations used
Text: The interaction of basic amphipathic peptides with negatively charged membranes depends on the electric field originating from the bilayer surface as well as specific electrostatic and hydrophobic interactions between the peptide and lipids (Fig. S2). The first objective of this study was to quantitatively evaluate the binding of SS-31 to model membranes with specific lipid composition. For spectroscopic analysis of SS-31 binding, we made use of the endogenous spectral properties of the 2′,6′-dimethyltyrosine (2′,6′-Dmt) side chain at the second position in the peptide. Our initial spectral characterization of SS-31 confirmed the feasibility of using endogenous peptide fluorescence to quantify peptide-membrane interactions (supporting Results A and B and Figs. S3 and S4). We therefore proceeded to measure the binding of SS-31 to large unilamellar vesicles (LUVs) containing anionic lipids in a host background of the zwitterionic lipid 1-palmitoyl-2-oleoyl-sn-glycero-3-phosphocholine (POPC, 16:0/18:1 PC). […]
Figure 2. […] A–C, fluorescence-based measurements. […] Statistical differences within each data set were determined relative to TOCL-containing membranes: •, p < 0.05; ••, p < 0.01. […]

Compound: Cc1cc(O)cc(C)c1C[C@H](NC(=O)[C@H](N)CCCNC(=N)N)C(=O)N[C@@H](CCCCN)C(=O)N[C@@H](Cc1ccccc1)C(N)=O [SS-31, D-Arg-2′6′-dimethyl-Tyr-Lys-Phe-NH2] (H-[dR][Dmt]KF-NH2)
- binding in the absence of anionic lipid: negligible
